Data published in paper PMC5741723, “Residues His172 and Lys238 are Essential for the Catalytic Activity of the Maleylacetate Reductase from Sphingobium chlorophenolicum Strain L-1” (Scientific Reports, 2017).

Assays:
[1] = target: T1, maleylacetate reductase (PcpE) (Sphingobium chlorophenolicum, UniProt F6F233); experiment: surface plasmon resonance; type: binding; details: PcpE immobilised by amine coupling; PBS-T, 5% DMSO, pH 7.4; n = 5
T1 construct: gene Sphch_4020; full length, 352 residues; recombinant His6-tagged, tag kept (SPR); mutants in pET30a(+) NdeI/XhoI, E. coli BL21-AI
T1 sequence (F6F233 entry or part of it): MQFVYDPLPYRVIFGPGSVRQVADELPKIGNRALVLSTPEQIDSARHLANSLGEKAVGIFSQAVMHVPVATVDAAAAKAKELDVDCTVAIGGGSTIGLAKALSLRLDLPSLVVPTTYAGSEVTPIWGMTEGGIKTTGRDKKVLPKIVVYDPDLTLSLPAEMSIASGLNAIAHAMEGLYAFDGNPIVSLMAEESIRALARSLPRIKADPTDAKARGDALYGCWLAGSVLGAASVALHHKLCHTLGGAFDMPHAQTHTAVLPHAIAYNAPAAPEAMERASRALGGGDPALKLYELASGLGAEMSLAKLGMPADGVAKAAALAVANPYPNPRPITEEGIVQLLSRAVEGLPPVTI

[2] = target: T1, maleylacetate reductase (PcpE); experiment: inhibition of MA reduction, NADH loss at […] nm; type: biochemical; details: 360 µM NADH, 400 µM MA, 20 mM Tris-HCl pH 7.0

## Oc1c(Cl)c(Cl)c(Cl)c(Cl)c1Cl [PCP, pentachlorophenol]
[1]
  Kd: 12.8 ± 0.2 µM
[2]
  % catalytic activity remaining at 5 μM: ~ 30%
